Legend:
Assay type in all cases: functional
K562 = assay: Cytotoxicity against Homo sapiens (human) K562 cells assessed as growth inhibition at 10 uM after 48 hr by coulter counter analysis; details: K562, 48 h, read-out: GI
SN12C = assay: Cytotoxicity against Homo sapiens (human) SN12C cells assessed as growth inhibition at 10 uM after 48 hr by coulter counter analysis; details: read-out: GI
UACC-257 = assay: Cytotoxicity against Homo sapiens (human) UACC257 cells assessed as growth inhibition at 10 uM after 48 hr by coulter counter analysis; details: UACC-257, 48 h, read-out: GI
SF-295 = assay: Cytotoxicity against Homo sapiens (human) SF295 cells assessed as growth inhibition at 10 uM after 48 hr by coulter counter analysis; details: SF-295, 48 h, read-out: GI
LOX IMVI = assay: Cytotoxicity against Homo sapiens (human) LOXIMVI cells assessed as growth inhibition at 10 uM after 48 hr by coulter counter analysis; details: read-out: GI
CCRF-CEM = assay: Cytotoxicity against Homo sapiens (human) CCRF-CEM cells assessed as growth inhibition at 10 uM after 48 hr by coulter counter analysis; details: read-out: GI
NCI-H226 = assay: Cytotoxicity against Homo sapiens (human) NCI-H226 cells assessed as growth inhibition at 10 uM after 48 hr by coulter counter analysis; details: NCI-H226, 48 h, read-out: GI
RXF 393 = assay: Cytotoxicity against Homo sapiens (human) RXF393 cells assessed as growth inhibition at 10 uM after 48 hr by coulter counter analysis; details: RXF 393, 48 h, read-out: GI
CAKI-1 = assay: Cytotoxicity against Homo sapiens (human) Caki1 cells assessed as growth inhibition at 10 uM after 48 hr by coulter counter analysis; details: CAKI-1, 48 h, read-out: GI
BT-549 = assay: Cytotoxicity against Homo sapiens (human) BT549 cells assessed as growth inhibition at 10 uM after 48 hr by coulter counter analysis; details: BT-549, 48 h, read-out: GI
MDA-MB-231 = assay: Cytotoxicity against Homo sapiens (human) MDA-MB-231 cells assessed as growth inhibition at 10 uM after 48 hr by coulter counter analysis; details: MDA-MB-231, 48 h, read-out: GI
A498 = assay: Cytotoxicity against Homo sapiens (human) A498 cells assessed as growth inhibition at 10 uM after 48 hr by coulter counter analysis; details: A498, 48 h, read-out: GI
SK-OV-3 = assay: Cytotoxicity against Homo sapiens (human) SKOV3 cells assessed as growth inhibition at 10 uM after 48 hr by coulter counter analysis; details: SK-OV-3, 48 h, read-out: GI
EKVX = assay: Cytotoxicity against Homo sapiens (human) EKVX cells assessed as growth inhibition at 10 uM after 48 hr by coulter counter analysis; details: read-out: GI
OVCAR-4 = assay: Cytotoxicity against Homo sapiens (human) OVCAR4 cells assessed as growth inhibition at 10 uM after 48 hr by coulter counter analysis; details: OVCAR-4, 48 h, read-out: GI
OVCAR-5 = assay: Cytotoxicity against Homo sapiens (human) OVCAR5 cells assessed as growth inhibition at 10 uM after 48 hr by coulter counter analysis; details: OVCAR-5, 48 h, read-out: GI
MDA-MB-468 = assay: Cytotoxicity against Homo sapiens (human) MDA-MB-468 cells assessed as growth inhibition at 10 uM after 48 hr by coulter counter analysis; details: MDA-MB-468, 48 h, read-out: GI
HCT-15 = assay: Cytotoxicity against Homo sapiens (human) HCT15 cells assessed as growth inhibition at 10 uM after 48 hr by coulter counter analysis; details: HCT-15, 48 h, read-out: GI
SK-MEL-2 = assay: Cytotoxicity against Homo sapiens (human) SK-MEL-2 cells assessed as growth inhibition at 10 uM after 48 hr by coulter counter analysis; details: SK-MEL-2, 48 h, read-out: GI
OVCAR-8 = assay: Cytotoxicity against Homo sapiens (human) OVCAR8 cells assessed as growth inhibition at 10 uM after 48 hr by coulter counter analysis; details: OVCAR-8, 48 h, read-out: GI
Hs-578T = assay: Cytotoxicity against Homo sapiens (human) Hs578T cells assessed as growth inhibition at 10 uM after 48 hr by coulter counter analysis; details: read-out: GI
HL-60(TB) = assay: Cytotoxicity against Homo sapiens (human) HL-60(TB) cells assessed as growth inhibition at 10 uM after 48 hr by coulter counter analysis; details: HL-60, 48 h, read-out: GI
SF-268 = assay: Cytotoxicity against Homo sapiens (human) SF268 cells assessed as growth inhibition at 10 uM after 48 hr by coulter counter analysis; details: SF-268, 48 h, read-out: GI
PC-3 = assay: Cytotoxicity against Homo sapiens (human) PC3 cells assessed as growth inhibition at 10 uM after 48 hr by coulter counter analysis; details: PC-3, 48 h, read-out: GI
SK-MEL-5 = assay: Cytotoxicity against Homo sapiens (human) SK-MEL-5 cells assessed as growth inhibition at 10 uM after 48 hr by coulter counter analysis; details: SK-MEL-5, 48 h, read-out: GI
HT-29 = assay: Cytotoxicity against Homo sapiens (human) HT-29 cells assessed as growth inhibition at 10 uM after 48 hr by coulter counter analysis; details: HT-29, 48 h, read-out: GI
HCT-116 = assay: Cytotoxicity against Homo sapiens (human) HCT116 cells assessed as growth inhibition at 10 uM after 48 hr by coulter counter analysis; details: HCT-116, 48 h, read-out: GI
Malme-3M = assay: Cytotoxicity against Homo sapiens (human) MALME-3M cells assessed as growth inhibition at 10 uM after 48 hr by coulter counter analysis; details: read-out: GI
HCC 2998 = assay: Cytotoxicity against Homo sapiens (human) HCC2998 cells assessed as growth inhibition at 10 uM after 48 hr by coulter counter analysis; details: HCC 2998, 48 h, read-out: GI
[1] = Cytotoxicity against Homo sapiens (human) NCI-ADR-RES cells assessed as growth inhibition at 10 uM after 48 hr by coulter counter analysis; details: read-out: GI
HOP-92 = assay: Cytotoxicity against Homo sapiens (human) HOP92 cells assessed as growth inhibition at 10 uM after 48 hr by coulter counter analysis; details: HOP-92, 48 h, read-out: GI
SF-539 = assay: Cytotoxicity against Homo sapiens (human) SF539 cells assessed as growth inhibition at 10 uM after 48 hr by coulter counter analysis; details: SF-539, 48 h, read-out: GI
COLO 205 = assay: Cytotoxicity against Homo sapiens (human) COLO205 cells assessed as growth inhibition at 10 uM after 48 hr by coulter counter analysis; details: COLO 205, 48 h, read-out: GI
ACHN = assay: Cytotoxicity against Homo sapiens (human) ACHN cells assessed as growth inhibition at 10 uM after 48 hr by coulter counter analysis; details: read-out: GI

`COc1ccc(C2C3=C(CCCC3)Nc3nc(-c4ccc(N(C)C)cc4)[nH]c(=O)c32)cc1OC` (stereo not drawn) gave an inhibition of growth at 10 µM (K562) of under 10%, an inhibition of growth at 10 µM (SN12C) of 12.9% and an inhibition of growth at 10 µM (UACC-257) of under 10%. The inhibition of growth at 10 µM (SF-295) was under 10%, the inhibition of growth at 10 µM (LOX IMVI) was under 10% and the inhibition of growth at 10 µM (CCRF-CEM) was under 10%. For the same molecule, the inhibition of growth at 10 µM (NCI-H226) was 13.6%, the inhibition of growth at 10 µM (RXF 393) was under 10% and the inhibition of growth at 10 µM (CAKI-1) was 10.5%. For the same molecule, the inhibition of growth at 10 µM (BT-549) was under 10%, the inhibition of growth at 10 µM (MDA-MB-231) was under 10% and the inhibition of growth at 10 µM (A498) was 21.7%. The inhibition of growth at 10 µM (SK-OV-3) was under 10%, the inhibition of growth at 10 µM (EKVX) was under 10% and the inhibition of growth at 10 µM (OVCAR-4) was under 10%. The inhibition of growth at 10 µM (OVCAR-5) was under 10%, the inhibition of growth at 10 µM (MDA-MB-468) was 10.8% and the inhibition of growth at 10 µM (HCT-15) was under 10%. The inhibition of growth at 10 µM (SK-MEL-2) was under 10%, the inhibition of growth at 10 µM (OVCAR-8) was under 10% and the inhibition of growth at 10 µM (Hs-578T) was under 10%. The inhibition of growth at 10 µM (HL-60(TB)) was under 10%, the inhibition of growth at 10 µM (SF-268) was under 10% and the inhibition of growth at 10 µM (PC-3) was 11.4%. It also gave an inhibition of growth at 10 µM (SK-MEL-5) of under 10%, an inhibition of growth at 10 µM (HT-29) of under 10% and an inhibition of growth at 10 µM (HCT-116) of under 10%. The inhibition of growth at 10 µM (Malme-3M) was under 10%, the inhibition of growth at 10 µM (HCC 2998) was under 10% and the inhibition of growth at 10 µM [1] was under 10%. The inhibition of growth at 10 µM (HOP-92) was under 10%, the inhibition of growth at 10 µM (SF-539) was under 10% and the inhibition of growth at 10 µM (COLO 205) was under 10%. For the same molecule, the inhibition of growth at 10 µM (ACHN) was under 10%.
With `Clc1ccc(C2C3=C(CCCC3)Nc3ncn4nc(-c5ccccc5)nc4c32)cc1` (stereo not drawn) the inhibition of growth at 10 µM (K562) was under 10%, the inhibition of growth at 10 µM (SN12C) was under 10% and the inhibition of growth at 10 µM (UACC-257) was under 10%. It also gave an inhibition of growth at 10 µM (SF-295) of under 10%, an inhibition of growth at 10 µM (LOX IMVI) of 15.1% and an inhibition of growth at 10 µM (CCRF-CEM) of under 10%. It also gave an inhibition of growth at 10 µM (NCI-H226) of 15.2%, an inhibition of growth at 10 µM (RXF 393) of under 10% and an inhibition of growth at 10 µM (CAKI-1) of 12.4%. It also gave an inhibition of growth at 10 µM (BT-549) of under 10%, an inhibition of growth at 10 µM (MDA-MB-231) of 11.1% and an inhibition of growth at 10 µM (A498) of 20.6%. It also gave an inhibition of growth at 10 µM (SK-OV-3) of under 10%, an inhibition of growth at 10 µM (EKVX) of under 10% and an inhibition of growth at 10 µM (OVCAR-4) of under 10%. It also gave an inhibition of growth at 10 µM (OVCAR-5) of under 10%, an inhibition of growth at 10 µM (MDA-MB-468) of 23.1% and an inhibition of growth at 10 µM (HCT-15) of 10.2%. The inhibition of growth at 10 µM (SK-MEL-2) was under 10%, the inhibition of growth at 10 µM (OVCAR-8) was under 10% and the inhibition of growth at 10 µM (Hs-578T) was under 10%. The inhibition of growth at 10 µM (HL-60(TB)) was under 10%, the inhibition of growth at 10 µM (SF-268) was under 10% and the inhibition of growth at 10 µM (PC-3) was 19.7%. It also gave an inhibition of growth at 10 µM (SK-MEL-5) of under 10%, an inhibition of growth at 10 µM (HT-29) of 14.4% and an inhibition of growth at 10 µM (HCT-116) of under 10%. For the same molecule, the inhibition of growth at 10 µM (Malme-3M) was under 10%, the inhibition of growth at 10 µM (HCC 2998) was under 10% and the inhibition of growth at 10 µM [1] was under 10%. The inhibition of growth at 10 µM (HOP-92) was 14%, the inhibition of growth at 10 µM (SF-539) was under 10% and the inhibition of growth at 10 µM (COLO 205) was 11.5%. It also gave an inhibition of growth at 10 µM (ACHN) of under 10%.

From ChEMBL document CHEMBL3045802, “Synthesis and in vitro antitumor activity of new quinoline, pyrimido[4,5-b]quinoline, [1,2,3]triazino[4,5-b]quinoline, and [1,2,4]triazolo[2,3:3,4]pyrimido[6,5-b]quinoline analogs” (2013)
